Results on one molecule are retold here after patent US20040132779A1, “Microsomal Triglyceride transfer protein inhibitor” (Pfizer Inc, priority 2002, published 2004).

A short description of this assay: Reduction of food intake assay. The following applies: beagles, oral gavage, 0.1, 0.25 or 0.5 mg/kg, Days 0 to 6. The assay is classed as in vivo. As for the experimental part:
Reduction of Food Intake Assay
Healthy, young adult (1-3 years of age) male and female beagles (Marshall Farms, North Rose, New York, N.Y. 14516) weighing 13-18 kg at the start of the treatment period are employed as test subjects.
The test compound is provided as a powder. The dosing solution, administered by oral gavage, is provided employing a 70/30 polyethylene glycol 400/water solution as the test vehicle. The dosing solution is prepared at 0.1 to 0.5 mg/ml activity so that 1 ml is delivered per kg body weight at dosages of 0.1 to 0.5 mg/kg. Following a seven day acclimation period, a ten day evaluation study is effected.
The study consists of three groups of animals containing 2 male and 2 female dogs, each. Each group of four animals is randomly assigned to receive 0.1, 0.25 or 0.5 mg/kg test compound. On Days 0 to 6, each dog receives the dosing solution administered as a single dose at Time 0 on each dosing day via a feeding tube. This is followed by a 10 ml water rinse to ensure total delivery of dosing solution. Each test animal is permitted ad libitum access to water and IAMS Mini-Chunks® (The Iams Company, P.O. Box 14597, Dayton, Ohio) dry food each day during the study and approximately 0.5-1 hours post-dose.

The structures appear in SMILES notation.

Take `Cc1cc(CNC(=O)[C@@H](NC(=O)C(F)(F)F)c2ccccc2)ccc1NC(=O)c1ccccc1-c1ccc(C(F)(F)F)cc1` [Example 1A-1, (S) 4′-Trifluoromethyl-biphenyl-2-carboxylic Acid (2-methyl-4-{[2-phenyl-2-(2,2,2-trifluoro-acetylamino)-acetylamino]-methyl}-phenyl)-amide]: the body weight entry is “reduction in body weight”, the fecal fat entry was “increased fecal fat”, the food intake result is listed as “reduction in food intake” and the serum cholesterol result is “reduction in serum cholesterol”.
